Test results: PMC3596558, “Identification of the metabolites of polybrominated diphenyl ether 99 and its related cytochrome P450s^” (Journal of Biomedical Research, 2010)
Values joined by “and” are separate entries in the source; they are usually repeats but may differ in a detail not shown here. Equal values may be shown once. “Also recorded” adds a separate entry of the source.

Key:
[1] = system: primary rat hepatocytes; assay: Metabolism of BDE-99 in primary rat hepatocytes, GC/MS of extracts; type: in vitro ADME; settings: for metabolite of BDE-99 detected by GC/MS (qualitative): compared with commercial standards
Source text: Primary rat hepatocytes were isolated from three individual male Sprague-Dawley CD rats (body weight 220-250 g) obtained from Laboratory Animal Center of Nanjing Medical University, using the two-step in situ collagenase perfusion method. Then the hepatocytes were purified by percoll density gradient separation and washed twice before being resuspended in the attachment medium. Cells viability exceeded 90% as determined by trypan blue exclusion. For the cell culture, the isolated hepatocytes were seeded in Type I collagen-coated 12-well plates at a density of 150, 000 cells/cm^2 in Williams' Medium E containing 5% fetal calf serum, 100 U/mL penicillin and 100 µg/mL streptomycin, and then incubated in a humidified atmosphere of 5% CO2 in air at 37°C. After 2-3 h incubation, the unattached cells were poured off and the medium was replaced with 1 mL HepatoZYME-SFM supplemented with 100 U/mL penicillin, 100 µg/mL streptomycin, 20 µg/L EGF and 20 µg/L HGF.
(§1) All the hepatocyte batches were exposed to BDE-99 at a nominal concentration of 10 µM, equivalent to 10 nM of compound per well. A stock solution of BDE-99 which was 200 times the final concentration in tissue culture medium was prepared in DMSO and stored at -20°C. Separate 12-well plates were used for the metabolism and gene expression analysis. To produce metabolites of BDE-99, the hepatocytes were treated once every 24 h for 3 days to take advantage of the increased activity of cells and potential increase in metabolite formation. The hepatocytes cultured with medium without BDE-99 were set up as controls. During medium exchange of the hepatocytes, we collected and pooled the contents from each well. After incubation, the hepatocytes were removed from the wells using 1 mL methanol to disrupt cell membranes. The contents were subsequently transferred to clean glass test tubes for extraction. For the gene expression analysis, the rat hepatocytes were exposed to 10 µM BDE-99 for 24 h. Wells treated with media containing aliquots of DMSO were set up as controls.
Hepatocytes and media were extracted using methods developed for the extraction of phenolic and neutral compounds from serum. Briefly, samples were first spiked with one internal standard, BDE-77, and extracted using methyl-tert-butyl ether/hexane:1/1(v/v). Lipids were removed from the extracts with concentrated sulfuric acid, and then the neutral and phenolic compounds were separated using a basic aqueous solution of potassium hydroxide. The phenolic fraction was derivatized with acetonitrile / methanol / water / pyrimidine: 5/2/2/1(v/v), then methyl chloroformate was added to produce methyl formate BDE congeners. After derivatization, samples were evaporated to complete dryness using a slow stream of nitrogen and reconstituted in hexane. Each human P450s assay sample was added into one internal standard BDE-77 before extraction. Proteins were denatured with 0.5 mL 6 M hydrochloric acid, and then 3 mL hexane was added for extraction. This step was repeated three times. The extraction was evaporated to complete dryness using a slow stream of nitrogen and reconstituted in 0.5 mL acetonitrile. Rates of elimination were determined by comparing the concentration of parent compound before and after the reaction.
The underivatized and derivatized extracts were analyzed using a GC/MS system (Trace DSQ ThermoFisher Scientific, USA) with electron impact (EI) ionization. Separation was performed on a DB-5MS column (30 m×0.25 mm i. d. ×0.25 µm thickness) (Agilent Technologies, Inc., USA). The inlet temperature was 260°C, and the injection was performed in pulsed splitless mode. The oven initial temperature was 110°C and was held for 1 min. The temperature was ramped to 210°C at 12°C/min, and a second ramp was performed to 250°C at 4°C/min and was […]. Finally, the oven was ramped to 300°C at 20°C/min and this step was held for 10 min to give a total run time of 32.83 min. […]

[2] = system: CYP1A2 mRNA; assay: CYP1A2 mRNA expression in primary rat hepatocytes, quantitative RT-PCR; type: cell-based; settings: 10 µM BDE-99, 24 h; P < 0.05; n = 3
Experimental: as §1, with “Wells treated with media containing aliquots of DMSO were set up as controls.” left out
(§2) The expression of several genes that encode potential biotransforming enzymes, such as CYP1A2, CYP2B1/2, CYP3A23/3A1, GSTM1 and GSTP1, were determined using quantitative RT-PCR, and GAPDH was used as a reference to calculate the expression levels. […] At the end of each step, the fluorescence intensity of evagreen was read on the 7900 system. […]

[3] = target: T1, human CYP2E1 (Homo sapiens, UniProt P05181); assay: Metabolic clearance (parent depletion) of BDE-99 by recombinant human CYP2E1; type: in vitro ADME; settings: 20-min incubation, 20 µM BDE-99, 37°C, N.S. = no significant difference (vs blank vector control)
T1 construct: made in house; host or cells: Sf9 insect cells (Bac-to-Bac baculovirus), microsomes
Source text: (§3) All the proteins were expressed in a Bac-to-Bac baculovirus expression system (Invitrogen Corp., USA) following the manufacturer's instructions. Briefly, the CYP1A1 (NM_000499), CYP1A2 (NM_000761), CYP2A6 (NM_000762), CYP2E1 (NM_000773) and CYP3A4 (NM_017460) cDNA were first transformed to the recombinant bacmid, and subsequently transfected into the Sf9 cells to produce recombinant baculovirus particles, and further to get the baculoviral stock which was finally used to express CYPs proteins in the culture medium containing 0.1 µM ferric citrate and 0.1 µM 5-ALA. After being incubated for 72 h, the infected Sf9 cells were harvested and the microsomes were prepared by sonication using an Ultrasonic Processor (CPX130, Cole-Parmer Scientific Instruments, USA) and differential centrifugation. The protein expressed from the blank vector was used as a negative control. The prepared microsomes were stored at -80°C prior to usage.
(§4) Each human P450 was screened for its ability to oxidize and eliminate BDE-99 from the assay mixture. […]
(§5) Hepatocytes and media were extracted using methods developed for the extraction of phenolic and neutral compounds from serum. […] Rates of elimination were determined by comparing the concentration of parent compound before and after the reaction.

[4] = target: T2, human CYP1A2 (Homo sapiens, UniProt P05177); assay: Metabolic clearance (parent depletion) of BDE-99 by recombinant human CYP1A2; type: in vitro ADME; settings: percentage parent BDE-99 metabolized during a 20-min incubation, 20 µM BDE-99, 37°C, mean ±SD, n = 3
T2 construct: made in house; host or cells: Sf9 insect cells (Bac-to-Bac baculovirus), microsomes
T2 sequence (P05177 1-516): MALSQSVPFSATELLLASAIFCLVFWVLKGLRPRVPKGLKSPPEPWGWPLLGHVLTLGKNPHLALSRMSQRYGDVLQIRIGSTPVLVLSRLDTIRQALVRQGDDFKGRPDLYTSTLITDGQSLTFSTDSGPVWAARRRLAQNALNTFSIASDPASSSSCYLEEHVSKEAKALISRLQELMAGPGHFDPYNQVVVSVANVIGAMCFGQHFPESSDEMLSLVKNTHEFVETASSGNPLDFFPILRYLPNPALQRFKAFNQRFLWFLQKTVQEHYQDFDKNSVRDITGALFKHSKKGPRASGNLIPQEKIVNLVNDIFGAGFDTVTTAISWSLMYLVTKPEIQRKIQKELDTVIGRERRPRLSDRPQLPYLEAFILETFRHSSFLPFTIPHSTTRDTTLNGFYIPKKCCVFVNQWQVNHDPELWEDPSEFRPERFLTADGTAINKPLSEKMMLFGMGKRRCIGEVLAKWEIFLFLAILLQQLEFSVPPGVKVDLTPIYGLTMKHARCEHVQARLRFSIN
Source text: as §3, §4, §5

[5] = system: CYP3A23/3A1 mRNA; assay: CYP3A23/3A1 mRNA expression in primary rat hepatocytes, quantitative RT-PCR; type: cell-based; settings: 10 µM BDE-99, 24 h; P < 0.05; n = 3
Experimental: as §1, with “Wells treated with media containing aliquots of DMSO were set up as controls.” left out
as §2

[6] = target: T3, human CYP1A1 (Homo sapiens, UniProt P04798); assay: Metabolic clearance (parent depletion) of BDE-99 by recombinant human CYP1A1; type: in vitro ADME; settings: percentage parent BDE-99 metabolized during a 20-min incubation, 20 µM BDE-99, 37°C, mean ±SD, n = 3
T3 construct: made in house; host or cells: Sf9 insect cells (Bac-to-Bac baculovirus), microsomes
T3 sequence (P04798 1-512): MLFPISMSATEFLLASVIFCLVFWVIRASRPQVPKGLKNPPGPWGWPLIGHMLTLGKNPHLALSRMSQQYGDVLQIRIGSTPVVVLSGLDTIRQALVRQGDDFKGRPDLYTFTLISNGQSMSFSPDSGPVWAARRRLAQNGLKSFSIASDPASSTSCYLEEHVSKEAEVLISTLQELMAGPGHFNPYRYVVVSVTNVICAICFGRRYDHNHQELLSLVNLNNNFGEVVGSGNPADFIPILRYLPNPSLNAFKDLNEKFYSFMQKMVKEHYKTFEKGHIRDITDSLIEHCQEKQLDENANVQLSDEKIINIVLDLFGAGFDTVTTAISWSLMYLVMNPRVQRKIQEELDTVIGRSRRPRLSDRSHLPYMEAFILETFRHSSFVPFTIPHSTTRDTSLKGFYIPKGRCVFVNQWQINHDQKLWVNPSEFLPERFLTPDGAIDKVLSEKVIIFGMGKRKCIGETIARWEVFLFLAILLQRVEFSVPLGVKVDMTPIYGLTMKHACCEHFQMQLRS
Source text: as §3, §4, §5

[7] = target: T4, human CYP3A4 (Homo sapiens, UniProt P08684); assay: Metabolic clearance (parent depletion) of BDE-99 by recombinant human CYP3A4; type: in vitro ADME; settings: percentage parent BDE-99 metabolized during a 20-min incubation, 20 µM BDE-99, 37°C, mean ±SD, n = 3
T4 construct: made in house; host or cells: Sf9 insect cells (Bac-to-Bac baculovirus), microsomes
Source text: as §3, §4, §5

[8] = target: T5, human CYP2A6 (Homo sapiens, UniProt P11509); assay: Metabolic clearance (parent depletion) of BDE-99 by recombinant human CYP2A6; type: in vitro ADME; settings: percentage parent BDE-99 metabolized during a 20-min incubation, 20 µM BDE-99, 37°C, mean ±SD, n = 3
T5 construct: made in house; host or cells: Sf9 insect cells (Bac-to-Bac baculovirus), microsomes
T5 sequence (P11509 1-494): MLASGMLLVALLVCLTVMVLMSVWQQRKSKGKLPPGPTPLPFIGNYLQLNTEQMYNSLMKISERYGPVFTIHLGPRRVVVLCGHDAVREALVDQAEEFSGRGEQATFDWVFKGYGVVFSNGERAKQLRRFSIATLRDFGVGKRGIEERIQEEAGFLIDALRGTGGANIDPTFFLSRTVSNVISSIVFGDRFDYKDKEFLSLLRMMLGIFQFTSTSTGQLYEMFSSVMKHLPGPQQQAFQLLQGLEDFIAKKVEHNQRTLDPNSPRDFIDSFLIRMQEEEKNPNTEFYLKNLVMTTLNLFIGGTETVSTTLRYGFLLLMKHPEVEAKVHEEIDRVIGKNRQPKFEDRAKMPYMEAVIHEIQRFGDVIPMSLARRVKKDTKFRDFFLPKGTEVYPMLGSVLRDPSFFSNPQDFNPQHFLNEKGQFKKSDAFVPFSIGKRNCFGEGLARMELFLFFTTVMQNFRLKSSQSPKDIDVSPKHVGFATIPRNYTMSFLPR
Source text: as §3, §4, §5

[9] = system: GSTM1 mRNA; assay: GSTM1 mRNA expression in primary rat hepatocytes, quantitative RT-PCR; type: cell-based; settings: 10 µM BDE-99, 24 h; n = 3
Experimental: as §1, with “Wells treated with media containing aliquots of DMSO were set up as controls.” left out
as §2

[10] = system: GSTP1 mRNA; assay: GSTP1 mRNA expression in primary rat hepatocytes, quantitative RT-PCR; type: cell-based; settings: 10 µM BDE-99, 24 h; n = 3
Experimental: as §1, with “Wells treated with media containing aliquots of DMSO were set up as controls.” left out
as §2

[11] = system: CYP2B1/2 mRNA; assay: CYP2B1/2 mRNA expression in primary rat hepatocytes, quantitative RT-PCR; type: cell-based; settings: 10 µM BDE-99, 24 h; P < 0.05; n = 3
Experimental: as §1, with “Wells treated with media containing aliquots of DMSO were set up as controls.” left out
as §2

[12] = hepatocytes exposed to 10 µM BDE-99

T1 sequence (P05181 whole entry): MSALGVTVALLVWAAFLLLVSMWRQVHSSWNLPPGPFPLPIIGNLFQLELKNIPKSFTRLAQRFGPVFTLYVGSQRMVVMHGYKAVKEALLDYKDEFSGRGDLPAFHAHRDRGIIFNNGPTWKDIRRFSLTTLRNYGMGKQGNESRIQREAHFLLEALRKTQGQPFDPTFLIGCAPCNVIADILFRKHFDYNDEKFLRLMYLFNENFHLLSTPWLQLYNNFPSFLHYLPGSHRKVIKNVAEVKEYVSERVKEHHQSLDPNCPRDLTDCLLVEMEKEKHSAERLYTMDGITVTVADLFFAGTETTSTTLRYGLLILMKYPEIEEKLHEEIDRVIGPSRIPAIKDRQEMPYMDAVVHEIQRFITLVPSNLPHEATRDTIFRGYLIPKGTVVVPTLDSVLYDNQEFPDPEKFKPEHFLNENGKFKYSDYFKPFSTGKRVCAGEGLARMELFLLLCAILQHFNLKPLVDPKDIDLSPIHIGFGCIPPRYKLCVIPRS
T4 sequence (P08684 whole entry): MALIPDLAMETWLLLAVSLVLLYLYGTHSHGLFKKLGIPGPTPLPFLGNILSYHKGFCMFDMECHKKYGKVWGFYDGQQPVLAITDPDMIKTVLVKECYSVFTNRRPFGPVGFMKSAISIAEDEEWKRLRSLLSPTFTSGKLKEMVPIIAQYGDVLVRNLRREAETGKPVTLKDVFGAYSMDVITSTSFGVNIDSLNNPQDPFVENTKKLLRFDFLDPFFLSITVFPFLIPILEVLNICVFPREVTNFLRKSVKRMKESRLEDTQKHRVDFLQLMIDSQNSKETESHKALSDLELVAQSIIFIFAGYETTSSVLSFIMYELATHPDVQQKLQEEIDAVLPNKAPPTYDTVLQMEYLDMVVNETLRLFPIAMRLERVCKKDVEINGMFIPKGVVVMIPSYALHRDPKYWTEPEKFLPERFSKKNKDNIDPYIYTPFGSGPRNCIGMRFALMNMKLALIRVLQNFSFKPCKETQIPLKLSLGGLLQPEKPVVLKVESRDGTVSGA

## Oc1cc(Br)c(Br)cc1Br [2,4,5-tribromophenol]
[1]; [12]
  metabolite of BDE-99 detected by GC/MS (qualitative): identified

## Oc1cc(Oc2ccc(Br)cc2Br)c(Br)cc1Br [5-OH-BDE-47]
[1]; [12]
  metabolite of BDE-99 detected by GC/MS (qualitative): identified

## Oc1cc(Oc2cc(Br)c(Br)cc2Br)c(Br)cc1Br [5′-OH-BDE-99]
[1]; [12]
  metabolite of BDE-99 detected by GC/MS (qualitative): identified

## Brc1ccc(Oc2ccc(Br)cc2Br)c(Br)c1 [BDE-47]
[1]; [12]
  metabolite of BDE-99 detected by GC/MS (qualitative): found in all hepatocytes exposed to BDE-99
[1]; hepatocytes exposed to 10 µM BDE-99, neutral extracts, GC/MS
  average concentration of metabolite BDE-47 formed from BDE-99: 215.9±35.8 pmol/well

## Brc1ccc(Oc2cc(Br)c(Br)cc2Br)c(Br)c1 [BDE-99, 2,2′,4,4′,5-pentabromodiphenyl ether]
[2]
  average percentage increase of CYP1A2 mRNA expression vs control: 15%
[3]
  Clearance rate of BDE-99 (%): seemed not to be associated with the BDE-99 metabolism; also recorded: did not contribute to any metabolism of BDE-99; also recorded: N.S. ^b
[4]
  Clearance rate of BDE-99 (%): 30.3% and 30.3±6.5%
[5]
  average percentage increase of CYP3A23/3A1 mRNA expression vs control: 124%
[6]
  Clearance rate of BDE-99 (%): 14.5%
[7]
  Clearance rate of BDE-99 (%): 27.7% and 27.7±5.1%
[8]
  Clearance rate of BDE-99 (%): 11.6% and 11.6±2.3%
[1]; after 24-h incubation, initial 10.21±0.50 nmol/well
  BDE-99 mass unrecovered: about 13.5%
[1]; [12]
  metabolite of BDE-99 detected by GC/MS (qualitative): no MeO metabolite was determined
[9]
  GSTM1 mRNA expression, treated cells vs control cells: no differences
[10]
  GSTP1 mRNA expression, treated cells vs control cells: no differences
[11]
  average percentage increase of CYP2B1/2 mRNA expression vs control: 22%
